According to US9012433B2, “Substituted tetracycline compounds” (Paratek Pharmaceuticals, Inc., priority 2006, dated 2015):
≈ marks a conversion by molar mass, not a printed value.

Experiments:
Format in all cases: cell-based
[1] = test system: B. thetaiotaomicron ATCC 29741; assay: Antibacterial MIC, CLSI broth microdilution; details: Bacteroides thetaiotaomicron, ATCC29741; 35° C., 18-24 hours; read-out: MIC B. thetaiotaomicron ATCC 29741
Description: (§1) Grain (−) and gram (+) antibacterial minimum inhibitory concentration (MIC) values (μg/mL) were obtained using CLSI methodology for anti-bacterial susceptibility testing. On each day of testing, serial dilutions of compounds were prepared in microdilution plates using a Tecan robotic workstation. Mueller Hinton broth cultures of representative sensitive and resistant gram negative strains were grown or adjusted to match the turbidity of a 0.5 McFarland standard. 1:200 dilutions were made in an appropriate broth (cation supplemented Mueller Hinton broth) to allow a final inoculum of 1×10^5 cfu. Plates were incubated at 35° C. in ambient air for 18-24 hours, were read spectrophotometrically and checked manually for evidence of bacterial growth. The lowest dilution of compound that inhibited growth was recorded as the MIC. Lysed horse blood was used to supplement broth for testing S. pneumoniae. The MIC's for each compound were assessed against S. aureus, S. pneumoniae, P. acnes, E. coli and B. theta.

[2] = test system: E. coli ATCC 25922; assay: Antibacterial MIC, CLSI broth microdilution; details: Escherichia coli, ATCC25922; 35° C., 18-24 hours
Description: as §1

[3] = test system: E. coli MG 1655; assay: Antibacterial MIC, CLSI broth microdilution; details: Escherichia coli, MG1655; 35° C., 18-24 hours
Description: as §1

[4] = test system: P. acnes ATCC 11827; assay: Antibacterial MIC, CLSI broth microdilution; details: Cutibacterium acnes, ATCC11827; 35° C., 18-24 hours
Description: as §1

[5] = test system: P. acnes ATCC 6919; assay: Antibacterial MIC, CLSI broth microdilution; details: Cutibacterium acnes, ATCC6919; 35° C., 18-24 hours
Description: as §1

[6] = test system: S. aureus RN450; assay: Antibacterial MIC, CLSI broth microdilution; details: Staphylococcus aureus, RN450; 35° C., 18-24 hours
Description: as §1

[7] = test system: S. pneumoniae 157E - Strep; assay: Antibacterial MIC, CLSI broth microdilution; details: Streptococcus pneumoniae, 157ESTREP; 35° C., 18-24 hours; lysed horse blood
Description: as §1

[8] = in vitro
Description: Mammalian cell cytotoxicity was assessed to evaluate potential in vivo risks associated with the tetracycline compounds of the invention. A soluble, non-toxic redox dye (“Resazurin”; Alamar Blue) was used to assess a tetracycline compound's effect on cellular metabolism. At the onset of the experiment, cultures of mammalian COS-1 or CHO cells were washed, trypsinized, and harvested. […] On the next day, serial dilutions of test drug were prepared under sterile conditions and transferred to cell plates. Plates were then incubated under the above conditions for 24 hours. Following the incubation period, the media/drug was aspirated, and 50 μL of resazurin was added. Plates were then incubated under the above conditions for 2 hours and then in the dark at room temperature for an additional 30 minutes. Fluorescence measurements were taken (excitation 535 nm, emission 590 nm) and toxic effects in treated versus control cells were compared based on the degree of fluorescence in each well.

MIC [1]	MIC [2]	MIC [3]	MIC [4]	MIC [5]	MIC [6]	MIC [7]	IC50 at 24 h ([8]; African green monkey)	IC50 at 24 h ([8]; Chinese hamster)	SMILES
4 to 8 mg/L (≈ 7.76 to 15.5 µM)	4 to 8 mg/L (≈ 7.76 to 15.5 µM)	> 8 mg/L	< 4 mg/L	< 4 mg/L	< 4 mg/L	< 4 mg/L	< 35 mg/L	< 35 mg/L	CN(C)[C@@H]1C(O)=C(C(N)=O)C(=O)[C@@]2(O)C(O)=C3C(=O)c4c(O)ccc(CNOC(C)(C)C)c4C[C@H]3C[C@@H]12 [AB]
4 to 8 mg/L (≈ 7.9 to 15.8 µM)	4 to 8 mg/L (≈ 7.9 to 15.8 µM)	> 8 mg/L	< 4 mg/L	< 4 mg/L	< 4 mg/L	< 4 mg/L	< 35 mg/L	< 35 mg/L	CN(C)[C@@H]1C(O)=C(C(N)=O)C(=O)[C@@]2(O)C(O)=C3C(=O)c4c(O)ccc(/C=N/n5cccc5)c4C[C@H]3C[C@@H]12 [AC, (4S,4aS,5aR,12aS)-4-Dimethylamino-3,10,12,12a-tetrahydroxy-1,11-dioxo-7-(pyrrol-1-yliminomethyl)-1,4,4a,5,5a,6,11,12a-octahydro-naphthacene-2-carboxylic acid amide]
4 to 8 mg/L (≈ 7.19 to 14.4 µM)	< 4 mg/L	< 4 mg/L	< 4 mg/L	< 4 mg/L	< 4 mg/L	< 4 mg/L	> 75 mg/L	> 75 mg/L	CCO/N=C(/CCN(C)C)c1ccc(O)c2c1C[C@H]1C[C@H]3[C@@H](N(C)C)C(O)=C(C(N)=O)C(=O)[C@@]3(O)C(O)=C1C2=O [AN, (4R,4aS,5aR,12aS)-4-Dimethylamino-7-(3-dimethylamino-1-ethoxyimino-propyl)-3,10,12,12a-tetrahydroxy-1,11-dioxo-1,4,4a,5,5a,6,11,12a-octahydro-naphthacene-2-carboxylic acid amide]

Continued, molecule first:

SMILES	MIC [1]	MIC [2]	MIC [3]	MIC [4]	MIC [5]	MIC [6]	MIC [7]	IC50 at 24 h ([8]; African green monkey)	IC50 at 24 h ([8]; Chinese hamster)
CCON(C)Cc1ccc(O)c2c1C[C@H]1C[C@H]3[C@H](N(C)C)C(O)=C(C(N)=O)C(=O)[C@@]3(O)C(O)=C1C2=O [AE]	4 to 8 mg/L (≈ 7.98 to 16 µM)	4 to 8 mg/L (≈ 7.98 to 16 µM)	> 8 mg/L	< 4 mg/L	< 4 mg/L	< 4 mg/L	< 4 mg/L	> 75 mg/L	< 35 mg/L
CCO/N=C(\C)CN(C)Cc1ccc(O)c2c1C[C@H]1C[C@H]3[C@H](N(C)C)C(O)=C(C(N)=O)C(=O)[C@@]3(O)C(O)=C1C2=O [AL, (4S,4aS,5aR,12aS)-4-Dimethylamino-7-[(2-ethoxyimino-propyl)-methyl-amino]-methyl-3,10,12,12a-tetrahydroxy-1,11-dioxo-1,4,4a,5,5a,6,11,12a-octahydro-naphthacene-2-carboxylic acid amide]	4 to 8 mg/L (≈ 7.19 to 14.4 µM)	4 to 8 mg/L (≈ 7.19 to 14.4 µM)	4 to 8 mg/L (≈ 7.19 to 14.4 µM)	< 4 mg/L	< 4 mg/L	< 4 mg/L	< 4 mg/L	< 35 mg/L	< 35 mg/L
CCONCc1ccc(O)c2c1C[C@H]1C[C@H]3[C@@H](N(C)C)C(O)=C(C(N)=O)C(=O)[C@@]3(O)C(O)=C1C2=O [AM]	4 to 8 mg/L (≈ 8.2 to 16.4 µM)	> 8 mg/L	> 8 mg/L	< 4 mg/L	< 4 mg/L	4 to 8 mg/L (≈ 8.2 to 16.4 µM)	4 to 8 mg/L (≈ 8.2 to 16.4 µM)	> 75 mg/L	> 75 mg/L
CN(C)[C@@H]1C(O)=C(C(N)=O)C(=O)[C@@]2(O)C(O)=C3C(=O)c4c(O)ccc(CN5CCCCO5)c4C[C@H]3C[C@@H]12 [DR]	4 to 8 mg/L (≈ 7.79 to 15.6 µM)	4 to 8 mg/L (≈ 7.79 to 15.6 µM)	> 8 mg/L	< 4 mg/L	< 4 mg/L	< 4 mg/L	< 4 mg/L	35 to 75 mg/L (≈ 68.2 to 146 µM)	35 to 75 mg/L (≈ 68.2 to 146 µM)
C/C(=N\OCC(F)(F)F)c1cc(N)c(O)c2c1C[C@H]1C[C@H]3[C@H](N(C)C)C(O)=C(C(N)=O)C(=O)[C@@]3(O)C(O)=C1C2=O [DT, (4S,4aS,5aR,12aS)-9-Amino-4-dimethylamino-3,10,12,12a-tetrahydroxy-1,1,1-dioxo-7-[1-(2,2,2-trifluoro-ethoxyimino)-ethyl]-1,4,4a,5,5a,6,11,12a-octahydro-naphthacene-2-carboxylic acid amide]	4 to 8 mg/L (≈ 7.04 to 14.1 µM)	4 to 8 mg/L (≈ 7.04 to 14.1 µM)	4 to 8 mg/L (≈ 7.04 to 14.1 µM)	< 4 mg/L	< 4 mg/L	< 4 mg/L	< 4 mg/L	–	–
CN(C)[C@H]1C(O)=C(C(N)=O)C(=O)[C@@]2(O)C(O)=C3C(=O)c4c(O)ccc(CNOCC(F)F)c4C[C@H]3C[C@@H]12 [DY]	4 to 8 mg/L (≈ 7.64 to 15.3 µM)	> 8 mg/L	> 8 mg/L	< 4 mg/L	< 4 mg/L	< 4 mg/L	4 to 8 mg/L (≈ 7.64 to 15.3 µM)	> 75 mg/L	> 75 mg/L
